Laboratory results taken from PubChem BioAssay (NCI).
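Cells were grown in 96-well plates and exposed to each compound for 48 hours at five concentrations; endpoints were interpolated linearly between bracketing concentrations, or set to the highest concentration if not reached. TGI: total growth inhibition.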 Where a SMILES comes first, the peptide text is derived from it. [ ]: non-standard residue; d: D form. The star is where a group is joined. hSer = N[CH](CCO)C(=O)O; Boc = CC(C)(C)OC(=O)*

Key:
Test in all cases: NCI-60 cell line screen, 48 h
[1] = system: UACC-257 melanoma
[2] = system: MCF7 breast
[3] = system: OVCAR-5 ovarian
[4] = system: NCI-H460 lung
[5] = system: HT29 colon
[6] = system: HCC-2998 colon
[7] = system: MOLT-4 leukemia
[8] = system: MDA-MB-435
[9] = system: CAKI-1 renal

| SMILES | TGI [1] [µM] | TGI [2] [µM] | TGI [3] [µM] | TGI [4] [µM] | TGI [5] [µM] | TGI [6] [µM] | TGI [7] [µM] | TGI [8] [µM] | TGI [9] [µM] |
| --- | --- | --- | --- | --- | --- | --- | --- | --- | --- |
| CN(C)CC1CCC/C(=C\c2ccc(N(C)C)cc2)C1=O (centres undefined) | 26.3 | 2.82 | 26.9 | 28.5 | 3.6 | 29.4 | > 100 | 17.4 | 3.3 |
| O=c1cnn(C2OC(CO)C(O)C(F)C2O)c(=O)[nH]1 (centres undefined) | > 100 | > 100 | > 100 | > 100 | > 100 | > 100 |  | > 100 | > 100 |
| CCCCCCCCCCCCNC(=O)NCC(OCC)OCC | > 10 | > 10 | > 10 | > 10 | > 10 | > 10 | > 10 | > 10 | > 10 |
| O=[N+]([O-])/C(C(Cl)=C(Cl)Cl)=C1\Nc2ccccc2O1 | > 100 | > 100 | > 100 | > 100 | > 100 | > 100 | 77.9 | > 100 | > 100 |
| COc1ccc2c(c1O)-c1c(OC)c(OC)cc3c1[C@H](C2)[N+](C)(C)CC3 | > 100 | > 100 | > 100 | > 100 | > 100 | > 100 | > 100 | > 100 | > 100 |
| COc1ccc(-n2sc3ncc(-c4ccccc4)cc3c2=O)cc1 | > 100 | > 100 | 74 | > 100 |  | > 100 |  | > 100 | 67.3 |
| Oc1ccc(-c2cc(-c3c(O)cc(O)cc3O)on2)cc1 | > 100 | > 100 | > 100 | > 100 | > 100 | > 100 | > 100 | > 100 | > 100 |
| COCCC(NC(=O)C(CC(C)C)NC(=O)OC(C)(C)C)C(N)=O (stereo not drawn) (Boc-Leu-[hSer](Me)-NH2; configuration not given here) | > 100 | > 100 |  | > 100 | > 100 | > 100 | > 100 | > 100 | > 100 |
| CCOC(=O)CC(C)C(C#N)(OP1(=O)OC(c2ccccc2)C(C)N1C)c1ccccc1 (centres undefined) | > 100 | > 100 | > 100 | > 100 | > 100 | > 100 | 73.1 | > 100 | > 100 |
| COc1ccc(C2CC(c3cc4c(C)c(C(=O)c5ccccc5)oc4cc3O)=Nc3ccccc3S2)cc1OC (centres undefined) | > 100 | > 100 | > 100 | > 100 | > 100 | > 100 | > 100 | 2.05 | > 100 |
| COC(=O)C(=O)C(C(=O)C(=O)Nc1ccccc1C(=O)OC)c1nc2ccc(C(=O)c3ccccc3)cc2[nH]c1=O (centres undefined) | > 100 | > 100 | > 100 | > 100 | > 100 |  |  | > 100 | > 100 |
| O=C(CCSC(CC(=O)c1ccc(Cl)cc1)c1ccc(Cl)cc1)Nc1ccc(Cl)cc1 (centres undefined) | 29.6 | 15.3 | 31.6 | 28.6 | 24.6 | 27 | 11.5 | 25.6 | 57.2 |
| COC(=O)OC[C@H]1O[C@@H](n2cc(C)c(=O)[nH]c2=O)CC1OC(=O)OC (some centres undefined) |  | > 100 | > 100 | > 100 | > 100 | > 100 | > 100 | > 100 |  |
| Cc1ncc([N+](=O)[O-])n1CCN(C)CCCCn1ccnc1[N+](=O)[O-] | > 100 | > 100 | > 100 | > 100 | > 100 | > 100 | > 100 | > 100 | > 100 |
| C1=C2SSC3=CC=C(SSc4ccc(s4)SSC4=CC=C(SSC(=C1)S2)S4)S3 | > 100 | > 100 | > 100 | > 100 | > 100 | > 100 | > 100 | > 100 | > 100 |
| CC12CC3c4ccccc4CN1C3(c1ccccc1)OC2=O (centres undefined) | > 100 |  | > 100 |  | > 100 |  | > 100 | > 100 | > 100 |
| N/C(CC/C(N)=N\O)=N\O | > 100 |  | > 100 | > 100 | > 100 | > 100 | > 100 | > 100 | > 100 |
| CC(C)CN1CN(c2ccccc2)C2(CCN(CC(C)(c3ccc(F)cc3)C3OCCO3)CC2)C1=O (centres undefined) | 10.8 | 13.8 | 25.7 |  | 5.94 | 8.52 | 7.32 | 23.5 | 24.4 |
| Fc1cccc(F)c1C1SCC2=Nc3ccccc3CN21 (centres undefined) | > 100 | > 100 | > 100 | > 100 |  | > 100 | > 100 | > 100 | > 100 |
| CCOC(=O)C1NCCc2c1[nH]c1ccccc21 (centres undefined) | > 10 | > 10 |  |  | > 10 | > 10 | > 10 | > 10 | > 10 |
| N#CC(c1ccc(O)cc1)N1CCN(C(C#N)c2ccc(O)cc2)CC1 (centres undefined) | > 100 | > 100 | > 100 |  | > 100 | > 100 | > 100 | > 100 | > 100 |
| Cc1cc(-c2ccc(C(=O)C(Cl)(Cl)Cl)[nH]2)on1 | > 100 |  | 73 | 21.8 | 76.8 |  | > 100 | 70.6 | 36.7 |
| COC(=O)c1ccc(CN2CCc3c([nH]c4ccccc34)C2CO)o1 (centres undefined) | > 10 | > 10 |  |  | > 10 | > 10 | > 10 | > 10 | > 10 |
| CSc1nc2c(c(N(C)C)n1)C=Nn1c(nc3ccccc31)S2 | > 100 |  | > 100 | > 100 | > 100 | > 100 | > 100 | > 100 | > 100 |
| Cc1c(C)c(C)c(-n2c(=O)n(C)c(=O)n2C(C)(C)C)c(C)c1C | > 100 | > 100 | > 100 | > 100 |  | > 100 | > 100 | > 100 | > 100 |
| Cc1cc(Br)c(N2C3=C(CC4=C2CCCC4=O)C(=O)CCC3)c(Br)c1 |  | > 100 | > 100 | > 100 | > 100 | > 100 | > 100 |  | > 100 |
